Values of other authors as cited in patent US20190289847A1, “SUSTAINED RELEASE FIBERS” (INVISTA TEXTILES (U.K.) LIMITED, priority 2016, published 2019).

Experiments:
[1] = system: dust mites
[2] = system: fleas and ticks; conditions: literature

For `O=C(Oc1ccccc1)c1ccccc1O` [phenyl salicylate], the duration of efficacy ([1]; applied in a typical manner, i.e. topical application, at best) is listed as 3-4 months, the “effectiveness against dust mites” value ([1]; literature) is listed as “effective” and the “effectiveness against fleas and ticks” value [2] is listed as “effective”.
